# No end group written: not given here.
# Molecular target: T1, HLA-DR1 (Homo sapiens, UniProt P01903+P01911, A100R/D57E/F55L/F60I/F76Y/I96L/L162R/M171V/P40L/Q125E/R42F/V115G/Y59C)
# T1 construct: DRα*0101 (Uniprot: P01903, residues 26–207); HLA-DRβ1*0101 (Uniprot: P04229, residues 30–219); made in house
# Assay: HLA-DR1 competitive peptide-binding assay
# Conditions: Fig. 2B; competition with 4.5 nM biotinylated CLIP99–117 marker peptide on refolded HLA-DR1-CLIP105–117, pH 5, overnight 37 °C, ELISA read-out; triplicate; four-parameter curve fit; read-out: HLA-DR1 binding IC50
row,Sequence,IC50
1,AGDGRLRLARLALVLLGWVS [5T4_11–30],535 nM
2,FARRPPLAELAALNLSGSRL [5T4_111–130],176 nM

# Same assay, conditions: Fig. 5 B,D,F,H,J; truncated/substituted 5T4_111–130 peptides; competition with biotinylated CLIP99–117, pH 5, overnight 37 °C; representative of two experiments in triplicate; read-out: HLA-DR1 binding (IC50)
row,Sequence,IC50
1,FARRPPLAELAAANLSGSRL,725 nM
2,FARRPPLAELAALNLS,360 nM
3,FARRPPLAELAALNLSGS,103 nM
4,FARRPPLAELAALNLSGSRL [5T4_111–130],136 nM
5,FARRPPLAELAALNLSRSRL,255 nM
6,LAELAALNL,5140 nM
7,PPLAELAALNLSGSRL,231 nM
8,RRPPLAELAALNLSGSRL,417 nM

# Same assay, conditions: HLA-DR1 binding (IC50)
row,Sequence,IC50
1,FARRPPLAELAALALSGSRL,144 nM
